Results published in PubChem BioAssay (NCI).
Values joined by “and” are separate entries in the source; they are usually repeats but may differ in a detail not shown here. Identical values can stand only once.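 Briefly, cells in 96-well plates were exposed to five compound concentrations for 48 h, and endpoints were estimated by linear interpolation. Abbreviation: GI50, concentration required for 50% inhibition of growth. TGI: concentration producing complete growth inhibition.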 *1 amine or outer side, *2 acyl side, *3 side chain or, on linkers, in order; H or OH if unused. Where a SMILES comes first, the peptide text is derived from it. Bridges are numbered along the chain shown (N, C = ends). [ ]: non-standard residue; d: D form. ξ: configuration not given here. X4 = CCC(C)C(N[*:1])C(O)CC(=O)O[C@H](C(=O)C(C)C(=O)[*:2])C(C)C; NMeY = CN[C@@H](Cc1ccc(O)cc1)C(=O)O; X9 = O=C([C@@H]1CC(O)CN1[*:1])[*:2]; ξNMeL = CNC(CC(C)C)C(=O)O; ξT = CC(O)C(N)C(=O)O

How the values were obtained:
Experiment in all cases: growth of human tumour cells (NCI), 48 h
NCI-H460 lung = tested on: NCI-H460 lung
SF-268 CNS = tested on: SF-268 CNS
OVCAR-8 ovarian = tested on: OVCAR-8 ovarian
NCI-H23 lung = tested on: NCI-H23 lung
NCI-H522 lung = tested on: NCI-H522 lung
SK-MEL-28 melanoma = tested on: SK-MEL-28 melanoma
M14 melanoma = tested on: M14 melanoma
RPMI-8226 leukemia = tested on: RPMI-8226 leukemia
SK-MEL-5 melanoma = tested on: SK-MEL-5 melanoma
T-47D breast = tested on: T-47D breast

Row | SMILES | GI50 (NCI-H460 lung) | TGI (NCI-H460 lung) | GI50 (SF-268 CNS) | TGI (SF-268 CNS) | GI50 (OVCAR-8 ovarian) | TGI (OVCAR-8 ovarian) | GI50 (NCI-H23 lung) | TGI (NCI-H23 lung) | GI50 (NCI-H522 lung) | TGI (NCI-H522 lung) | GI50 (SK-MEL-28 melanoma) | TGI (SK-MEL-28 melanoma) | GI50 (M14 melanoma) | TGI (M14 melanoma) | GI50 (RPMI-8226 leukemia) | TGI (RPMI-8226 leukemia) | GI50 (SK-MEL-5 melanoma) | TGI (SK-MEL-5 melanoma) | GI50 (T-47D breast) | TGI (T-47D breast)
1 | O=[N+]([O-])c1cccc(-c2nc3sccn3c2-c2ccnc(NCCCNS(=O)(=O)c3ccc(F)cc3)n2)c1 | 2.94 µM | > 100 µM | 2.92 µM | > 100 µM | 1.74 µM | 22.2 µM | 2.42 µM | 9.16 µM | 1.59 µM | 6.02 µM | 2.75 µM | 7.92 µM | 2.72 µM | > 100 µM | 0.677 µM | 2.94 µM | 1.06 µM | 2.45 µM | 0.303 µM | 2.82 µM
2 | N#Cc1nc(-c2cccc(Br)c2)cc(-c2ccc(Nc3nc(N4CCCCC4)nc(N4CCCCC4)n3)cc2)c1N | 1.85 µM | 3.8 µM | 3.27 µM | 21.5 µM | 2.66 µM | > 100 µM | 2.39 µM | 8.33 µM | 1.78 µM | 4.72 µM | 1.83 µM | 3.89 µM | 2.84 µM | 7.5 µM | 2.19 µM | 24 µM | 1.76 µM | 3.18 µM | 1.3 µM | 4.08 µM
3 | O=C(Oc1ccccc1)c1cc(O)c(O)c(O)c1 | 4.54 µM | > 100 µM | 8.15 µM | > 100 µM | 9.82 µM | > 100 µM | 11.7 µM | 59.2 µM | 4.1 µM | 42.5 µM | 19.2 µM | > 100 µM | 11.9 µM | 34 µM | 11.4 µM | > 100 µM | 11.4 µM | 38.8 µM | 18.1 µM | > 100 µM
4 | O=C1C(NCCO)=C(N2CC2)C(=O)C(NCCO)=C1N1CC1 | – | > 66.2 µM | – | 76.8 µM | – | > 85.7 µM | – | 74.6 µM | – | 70.6 µM | – | > 100 µM | – | > 100 µM | – | > 84.8 µM | – | > 85.5 µM | – | > 100 µM
5 | OCCNc1nc(NCCO)nc(Nc2ccc(C3=NN(c4cc(Cl)cc(Cl)c4)C(c4ccc(Cl)cc4)C3)cc2)n1 (configuration not stated) | 1.89 µM | 3.66 µM | 1.86 µM | 3.79 µM | 2.08 µM | 4.75 µM | 1.72 µM | 3.4 µM | 2.03 µM | 4.66 µM | 1.61 µM | 3.02 µM | 1.69 µM | 3.23 µM | 1.91 µM | 4.85 µM | 1.81 µM | 3.37 µM | 1.5 µM | 3.88 µM
6 | CCC(C)C1NC(=O)C(NC(=O)C(CC(C)C)N(C)C(=O)[C@@H]2CC(O)CN2)C(C)OC(=O)[C@H](Cc2ccc(OC)cc2)N(C)C(=O)[C@@H]2CCCN2C(=O)[C@H](CC(C)C)NC(=O)C(C)C(=O)[C@H](C(C)C)OC(=O)CC1O (some centres not stated) (H-[X9][ξNMeL][ξT][X4]LP[NMeY](Me); ester 3-C) | – | 0.134 µM and 1.1 µM | – | 0.172 µM and 0.252 µM | 0.0238 µM | 0.759 µM and 1.06 µM | – | – | – | 0.0519 µM and 0.0638 µM | – | 0.0194 µM and 0.106 µM | – | 0.11 µM and 0.126 µM | 0.0103 µM | – | – | 0.101 µM and 0.0147 µM | – | 0.0657 µM and 0.0994 µM
7 | COc1nccc(-c2c(-c3ccc(F)cc3)ncn2C2CCC(O)CC2)n1 (configuration not stated) | 29.9 µM | > 100 µM | > 84.6 µM | > 100 µM | 89.1 µM | > 100 µM | > 100 µM | > 100 µM | > 60.1 µM | > 100 µM | > 58.3 µM | > 100 µM | > 100 µM | > 100 µM | > 70.3 µM | > 100 µM | 43.1 µM | > 100 µM | 54.5 µM | > 100 µM
8 | COc1ncnc2c(NC3OC(CO)C(O)C3O)ncnc12 (configuration not stated) | – | > 83.5 µM | – | > 100 µM | – | 5.29 µM | – | 13.5 µM | – | > 100 µM | – | > 100 µM | – | 21.9 µM | – | 3.08 µM | – | > 39.8 µM | – | 7.22 µM
9 | Cc1c(C(=O)/C=C/c2ccc(O)cc2)nnn1-c1ccnc2c(C(F)(F)F)cccc12 | 15 µM | > 100 µM | 4.08 µM | 71.8 µM | 10 µM | > 100 µM | 15.2 µM | > 100 µM | 6.2 µM | > 100 µM | 51.8 µM | > 100 µM | 49.6 µM | > 100 µM | 2.84 µM | 21.1 µM | 4.81 µM | 24.8 µM | 5.53 µM | > 100 µM
10 | COc1cc(N2CCC(N(C)C)CC2)ccc1Nc1ncc(Cl)c(Nc2ccccc2P(C)(C)=O)n1 | 1.92 µM and 0.385 µM | 12.9 µM and > 3.67 µM | 1.17 µM and 0.386 µM | 5.04 µM and 2.76 µM | 2.77 µM and 0.926 µM | 23.4 µM and > 10 µM | 1.33 µM and 0.338 µM | 17.1 µM and > 4.62 µM | 0.483 µM and 0.115 µM | 6.08 µM and 3.32 µM | 6.44 µM and 1.31 µM | 37 µM and > 7.34 µM | 2.23 µM and 0.503 µM | 15.3 µM and > 4.88 µM | 3.85 µM and 2.05 µM | 21.7 µM and > 7.1 µM | 4.34 µM and 2.72 µM | 17 µM and > 6.71 µM | 7.03 µM and 1.43 µM | 38.5 µM and > 10 µM
11 | COC(=O)Nc1ccc2ccc3c(NC(=O)OC)ccc4ccc1c2c43 (tested in a mixture with another compound) | 4.79 µM | > 50 µM | 14 µM | > 50 µM | 14.3 µM | > 50 µM | 11.5 µM | > 50 µM | 11 µM | > 50 µM | 35.2 µM | > 50 µM | 3.93 µM | > 50 µM | 8.22 µM | > 50 µM | 4.42 µM | > 50 µM | 9.23 µM | 35.6 µM
12 | CCCCCCC(C)CC(CCCCCC)NCCOC(=O)c1ccc([N+](=O)[O-])cc1 (configuration not stated) | 13.7 µM and 5.28 µM | 29.4 µM and 18.4 µM | – | 30.7 µM and 27.6 µM | – | 22.1 µM and 19.7 µM | – | 38.9 µM and 34.5 µM | – | 28.4 µM and 26.2 µM | – | 27 µM | 12.4 µM and 4.53 µM | 28.4 µM and 17.7 µM | – | 24 µM and 30.2 µM | – | 28.4 µM and 23.4 µM | – | 39.3 µM and 38.1 µM
13 | N#Cc1c(NC(=O)c2cccs2)[n+]([O-])c2ccccc2[n+]1[O-] | > 100 µM | > 100 µM | > 100 µM | > 100 µM | 63.4 µM | > 100 µM | > 100 µM | > 100 µM | > 100 µM | > 100 µM | > 100 µM | > 100 µM | > 100 µM | > 100 µM | > 100 µM | > 100 µM | 39.9 µM | > 100 µM | 89.3 µM | > 100 µM
